Reference: patent US5527900A, “N3-alkyl-2',5'-0-silylated-3'-spiro-thymidine derivatives” (Stitching Rega VZW, priority 1991, dated 1996)
Values after ≈ are worked out from the molar mass of the structure shown. Like-named read-outs stand apart in the source and are kept apart here.

Tests used:
HIV-1 mutant strains = experiment: Resistance of HIV-1 strains selected against compounds 5, 6 and 7; type: cell-based
HIV-1 (HTLV-IIIB) = experiment: Anti-retrovirus activity: inhibition of HIV-1-induced cytopathogenicity in MT-4 cells; type: cell-based; conditions: for EC50: Human immunodeficiency virus 1, IIIB; for S.I. (Selectivity Index): Table 1, CC50/EC50, MT-4 cells
Description: The viruses used were moloney murine sarcoma virus (MSV), HIV-1 (strain HTLV-IIIB, kindly provided by R. C. Gallo and M. Popovic, National Cancer Institute, Bethesda, Md.), HIV-2 (strain LAV-2(ROD)), kindly provided by L. Montagnier (Pasteur Institute, Paris, France), simian immunodeficiency virus (SIV) (strain SIVMAC251, kindly provided by C. Bruck, RIT-Smith-Kline, Rixensart, Belgium).
(§1) In order to evaluate the inhibitory effects against retrovirus-induced cytopathogenicity in MT-4cells, said cells (5×10^5 cells/ml) were suspended in fresh culture medium and infected with HIV-1, HIV-2 or SIOV at 100 times the cell culture infective dose-50 (CCID50) per ml cell suspension (1 CCID50 being the dose infective for 50% of the cell cultures). Then, 100 μl of the infected cell suspension were transferred to microplate wells, mixed with 100 μl of the appropriate dilutions of the test compounds, and further incubated at 37° C. After 5 days, the number of viable cells was determined in a blood cell-counting chamber by trypan blue staining for both virus-infected and mock-infected cell cultures.

MT-4 cell RNA synthesis = experiment: Incorporation of radiolabeled precursors into MT-4 cell RNA; type: cell-based; conditions: Homo sapiens
Description: (§2) The radiolabeled nucleosides [methyl-^3 H]dThd (specific radioactivity: 40 Ci/mmol), [5-^3 H]dUrd (specific radioactivity: 27 Ci/mmol), [5-^3 H]dCyc (specific radioactivity: 18.2 Ci/mmol) and the radiolabeled amino acid L-[4,5-^3 H]leucine (specific radioactivity: 52 Ci/mmol were derived from the Radiochemcial Centre (Amersham, England); [5-^3 H]Urd (specific radioactivity: 21 Ci/mmol) and [5-^3 H]Cyd (specific radioactivity: 21 Ci/mmol) and were obtained from Moravek Biochemicals Inc. (Brea, Calif.)
(§3) The incorporation of [methyl-^3 H]dThd, [5-^3 H]dUrd, [5-^3 H]dCyd, [5-^3 H]Urd, [5-^3 H]Cyd and L-[4,5-^3 H]1eu into TCA-insoluble MT-4 cell material was measured in wells of a 96-well microtiter plate (Falcon-3072, Becton-Dickinson, New Jersey). To each well were added 10^5 MT-4 cells, 0.25 μCi of the radiolabeled precursor and a given amount of test compound. The cells were allowed to proliferate for 20 to 24 hr at 37° C. in a humidified, CO2 -controlled atmosphere. At the end of this incubation period, the contents of the wells (200 μl) were brought onto 25-mm glass fiber filters (type A/E, Gelman Instrument Company, Ann Arbor, Mich.), and mounted on a Millipore 3025 sampling manifold apparatus. The filters were washed twice with 2 ml and 5 ml cold NaCl/Pi (phosphte-buffered saline), twice with 2 and 5 ml cold 10% trichloroacetic acid (TCA), twice with 5 and 7.5 ml cold 5% TCA, and twice with 1 ml cold ethanol.

MT-4 cell DNA synthesis = experiment: Incorporation of radiolabeled precursors into MT-4 cell DNA; type: cell-based; conditions: Homo sapiens
Description: as §2, §3

MT-4 cells [1] = experiment: Cytotoxicity for mock-infected MT-4 cells; conditions: for cytotoxicity to MT-4 cells (in words): at 100 μg/ml
Method: as §1

[2] = Cytotoxicity for mock-infected MT-4 cells; conditions: human, mt-4 cells
Method: as §1

[3] = Partition coefficient (Pa) between 1-octanol and 10 mM potassium phosphate buffer; type: physicochemical; conditions: 1-octanol / 10 mM potassium phosphate buffer, pH 7.5, 50 μM
Method: Partition of the test compounds between 1-octanol (Merck, Darmstadt, Germany) and 10 mM potassium phosphate buffer, pH, 7.5 (Merck), was measured as described in Balzarini et al., Biochem, Biophys. Res. Commun. 158: 413-422 (1989). Briefly, a 50 μM concentration of the test compound in potassium phosphate buffer was thoroughly mixed with an equal volume of 1-octanol for 30 min at room temperature. Then, the mixture was further equilibrated at room temperature and UV absorption was measured for the aqueous and alcoholic liquid phases. The partition coefficient (Pa) was calculated as the ratio of the compound concentration present in the 1-octanol phase to the compound concentration present in the aqueous phase.

HIV-1 = experiment: Antiviral activity upon delayed addition to HIV-1-infected MT-4 cells; type: cell-based; conditions: for decrease of antiviral activity on delayed addition: addition delayed by 17-24 hours, data not shown; for antiviral activity on delayed addition: addition delayed by 41 to 48 hours
Method: as §1
Mt-4 cells were suspended in culture medium, infected with HIV-1 and brought into microplate wells as described above. […] After 5 days, the number of viable cells was determined and the EC50 and CC50 values for the test compounds were defined as described in example 1.

[4] = system: MT-4 cell protein synthesis; experiment: Incorporation of radiolabeled leucine into MT-4 cell protein; type: cell-based; conditions: Homo sapiens
Description: as §2, §3

[5] = system: MT-4 cell DNA, RNA or protein synthesis; experiment: Incorporation of radiolabeled DNA, RNA or protein precursors into TCA-insoluble MT-4 cell material (summary in words); type: cell-based; conditions: for inhibition of incorporation of dThd, dUrd, dCyd, Urd, Cyd or leucine: at 100 μg/ml
Description: as §2, §3

HIV-2 strain (EHO) = experiment: Activity against HIV-2 strain EHO; type: cell-based
MT-4 cells [6] = experiment: Cytotoxicity for MT-4 cells depending on exposure time; type: cell-based
Method: The toxicity of test compounds upon a 2-hr incubation period was determined by exposing MT-4 cells (3.5×10^5 cells/ml) to 100, 20, 4, 0.8 or 0.16 μg/ml of the test compounds for 2 hours at 37° C. Subsequently the cells were washed with culture medium. The pretreated cells were seeded in microplate wells at 70×10^3 cells/200 μl-well and allowed to grow for 3 days at 37° C. Control cultures received similar concentrations of the test compounds during the whole incubation period. Then, cells were counted in a Coulter counter (Harpenden Hertz, England) and the CC50 values were determined for each compound.
Mt-4 cells were suspended in culture medium, infected with HIV-1 and brought into microplate wells as described above.

[7] = target: reverse transcriptase enzyme of the TSAO-resistant HIV-1 strains (HIV-1 M:B_HXB2R, UniProt P04585, E725K); type: binding; conditions: Glu-138 to Lys
[8] = AIDS patients; cited from earlier work
[9] = MT4, read-out: 50% effective concentration (EC50)
[10] = MT4, MT-4 cells, 20 to 24 hr, read-out: IC50, [5-3H]Cyd incorporation
[11] = MT4, MT-4 cells, 20 to 24 hr, read-out: IC50, [5-3H]Urd incorporation
[12] = MT4, MT-4 cells, 20 to 24 hr, read-out: IC50, [5-3H]dCyd incorporation
[13] = MT4, MT-4 cells, 20 to 24 hr, read-out: IC50, [5-3H]dUrd incorporation
[14] = MT4, MT-4 cells, 20 to 24 hr, read-out: IC50, [methyl-3H]dThd incorporation
[15] = MT4, MT-4 cells, 20 to 24 hr, read-out: IC50, L-[4,5-3H]leucine incorporation

SMILES | amino acid change in reverse transcriptase of HIV-1 strains selected for resistance (HIV-1 mutant strains) | EC50 (HIV-1 (HTLV-IIIB); MT4, 120 h) [µg/mL] | S.I. (Selectivity Index) (HIV-1 (HTLV-IIIB)) | IC50 (MT-4 cell RNA synthesis; [10]) [µg/mL] | IC50 (MT-4 cell RNA synthesis; [11]) [µg/mL] | IC50 (MT-4 cell DNA synthesis; [12]) [µg/mL] | IC50 (MT-4 cell DNA synthesis; [13]) [µg/mL] | IC50 (MT-4 cell DNA synthesis; [14]) [µg/mL] | cytotoxicity to MT-4 cells (in words) (MT-4 cells [1]) | CC50 at 120 h [2] [µg/mL] | presence in the n-octanol phase compared to the aqueous phase [3] | logD at 50 µM ([3]; room temperature) | antiviral activity on delayed addition (HIV-1) | IC50 [4, 15] [µg/mL] | inhibition of incorporation of dThd, dUrd, dCyd, Urd, Cyd or leucine [5] | also measured
Cc1cn([C@@H]2O[C@H](CO[Si](C)(C)C(C)(C)C)[C@@]3(OS(=O)(=O)C=C3N)[C@H]2O[Si](C)(C)C(C)(C)C)c(=O)n(C)c1=O [Compound 6] | glutamic acid change at position 138 to lysine | 0.034 (≈ 0.0563 µM) | 4088 | > 100 | > 100 | > 100 | > 100 | > 100 | not cytotoxic | 139 (≈ 230 µM) | more than 95% | > 1.3 | almost totally lost | > 100 | did not markedly inhibit | Selectivity Index (HIV-1 (HTLV-IIIB)): 4088; EC50 (HIV-1 (HTLV-IIIB); [9]): 0.034 µg/mL (≈ 0.0563 µM); decrease of antiviral activity on delayed addition (HIV-1): 10 fold
CC(C)(C)[Si](C)(C)OC[C@H]1O[C@@H](n2ccc(N)nc2=O)[C@H](O[Si](C)(C)C(C)(C)C)[C@]12OS(=O)(=O)C=C2N [Compound 14, {1-[2', 5'-Bis-O-(tert-butyldimethylsilyl)-β-D-ribofuranosyl]-cytosine}-3'-spiro-5"-{4"-amino-1",2"-oxathiole-2",2"-dioxide}] | – | 0.439 (≈ 0.764 µM) | ≥ 456 | > 100 | > 100 | > 100 | > 100 | > 100 | not cytotoxic | ≥ 200 | more than 95% | > 1.3 | – | > 100 | did not markedly inhibit | activity against HIV-2 strain (EHO) (HIV-2 strain (EHO)): inactive
Cc1cn([C@@H]2O[C@H](CO[Si](C)(C)C(C)(C)C)[C@@]3(OS(=O)(=O)C=C3N)[C@H]2O[Si](C)(C)C(C)(C)C)c(=O)[nH]c1=O [Compound 5, {1-[2', 5'-Bis-O-(tert-butyldimethylsilyl)-β-D-ribofuranosyl]thymine}-3'-spiro-5"-{4"-amino-1",2"-oxathiole-2", 2"-dioxide}] | glutamic acid change at position 138 to lysine | – | – | – | – | – | – | – | not cytotoxic | 7.7 (≈ 13.1 µM) | more than 95% | > 1.3 | almost totally lost | – | – | IC50 (MT-4 cell RNA synthesis; MT4, read-out: IC50, [5-3H]Cyd incorporation): 8 µg/mL (≈ 13.6 µM); IC50 (MT-4 cell RNA synthesis; MT4, read-out: IC50, [5-3H]Urd incorporation): 11 µg/mL (≈ 18.6 µM); IC50 (MT-4 cell DNA synthesis; MT4, read-out: IC50, [5-3H]dCyd incorporation): 115 µg/mL (≈ 195 µM); IC50 (MT-4 cell DNA synthesis; MT4, read-out: IC50, [5-3H]dUrd incorporation): 9.1 µg/mL (≈ 15.4 µM); IC50 (MT-4 cell DNA synthesis; MT4, read-out: IC50, [methyl-3H]dThd incorporation): 13 µg/mL (≈ 22 µM); toxicity for MT-4 cells depending on contact time (MT-4 cells [6]; time of contact with the cells varied): not affected by the time that the compound had remained in contact with the cells; decrease of antiviral activity on delayed addition (HIV-1): 10 fold; IC50 ([4]; MT4, read-out: IC50, L-[4,5-3H]leucine incorporation): 11.6 µg/mL (≈ 19.7 µM)
Cc1ccnc2c1NC(=O)c1cccnc1N2C1CC1 [Nevirapine, reference compound] | – | – | – | – | – | – | – | – | – | – | – | – | – | – | – | affinity of mutated reverse transcriptase [7]: not for other HIV-1-specific compounds
Cc1cn([C@@H]2O[C@H](CO[Si](C)(C)C(C)(C)C)[C@@]3(OS(=O)(=O)C=C3N)[C@H]2O[Si](C)(C)C(C)(C)C)c(=O)nc1N [Compound 16, {1-[2', 5'-Bis-O-(tert-butyldimethylsilyl)-β-D-ribofuranosyl]-5-methyl-cytosine}-3'-spiro-5"-{4"-amino-1",2"-oxathiole-2",2"-dioxide}] | – | 0.072 (≈ 0.122 µM) | 246 | 11 (≈ 18.7 µM) | 8.9 (≈ 15.1 µM) | 14 (≈ 23.8 µM) | 9.9 (≈ 16.8 µM) | 14 (≈ 23.8 µM) | not cytotoxic | 17.7 (≈ 30.1 µM) | – | – | – | 13 (≈ 22.1 µM) | did not markedly inhibit | activity against HIV-2 strain (EHO) (HIV-2 strain (EHO)): inactive; inhibition of MT-4 cell proliferation (in words) (MT-4 cells [1]): inhibitory to MT-4 cell proliferation; inhibition of incorporation of precursors relative to inhibition of MT-4 cell proliferation ([5]; Table 2 discussion): equally inhibitory; preferential inhibition of incorporation of one precursor over the others ([5]; Table 2 discussion): neither
Cc1cn([C@H]2C[C@H](N=[N+]=[N-])[C@@H](CO)O2)c(=O)[nH]c1=O [AZT, 3'-Azido-3'-deoxythymidine, reference compound] | – | – | – | – | – | – | – | – | – | – | – | – | almost totally lost | – | – | cytostatic activity depending on exposure time (MT-4 cells [6]; data not shown): less cytostatic the shorter its exposure time to MT-4 cells; partition coefficient (Pa) ([3]; room temperature): 1.12; toxic side effects on long-term treatment [8]: bone marrow suppression
CCn1c(=O)c(C)cn([C@@H]2O[C@H](CO[Si](C)(C)C(C)(C)C)[C@@]3(OS(=O)(=O)C=C3N)[C@H]2O[Si](C)(C)C(C)(C)C)c1=O [Compound 7, {1-[2', 5'-Bis-O-(tert-butyldimethylsily)-62 -D-ribofuranosyl]-3-N-ethyl-thymine}-3'-spiro-5"-{4"-amino-1", 2"-oxathiole-2",2"-dioxide}] | glutamic acid change at position 138 to lysine | 0.073 (≈ 0.118 µM) | 1000 | – | – | – | – | – | – | 73 (≈ 118 µM) | more than 95% | > 1.3 | – | – | – | Selectivity Index (HIV-1 (HTLV-IIIB)): 1000; EC50 (HIV-1 (HTLV-IIIB); [9]): 0.073 µg/mL (≈ 0.118 µM)
